In US11473077B2, “Engineered tyrosine ammonia lyase” (Codexis, Inc., priority 2018, dated 2022):

What was measured:
[1] = target: T1, Flavobacterium johnsoniae tyrosine ammonia lyase (TAL), SEQ ID NO: 6 (Flavobacterium johnsoniae, UniProt A5FKY3); assay: SFP characterization assay for kinetic parameters on tyrosine (Michaelis-Menten fit, absorbance at 290 nm); format: biochemical; conditions: 0-2.48 mM tyrosine, 200 mM sodium phosphate, pH 7.0, A290
T1 sequence (A5FKY3 1-506): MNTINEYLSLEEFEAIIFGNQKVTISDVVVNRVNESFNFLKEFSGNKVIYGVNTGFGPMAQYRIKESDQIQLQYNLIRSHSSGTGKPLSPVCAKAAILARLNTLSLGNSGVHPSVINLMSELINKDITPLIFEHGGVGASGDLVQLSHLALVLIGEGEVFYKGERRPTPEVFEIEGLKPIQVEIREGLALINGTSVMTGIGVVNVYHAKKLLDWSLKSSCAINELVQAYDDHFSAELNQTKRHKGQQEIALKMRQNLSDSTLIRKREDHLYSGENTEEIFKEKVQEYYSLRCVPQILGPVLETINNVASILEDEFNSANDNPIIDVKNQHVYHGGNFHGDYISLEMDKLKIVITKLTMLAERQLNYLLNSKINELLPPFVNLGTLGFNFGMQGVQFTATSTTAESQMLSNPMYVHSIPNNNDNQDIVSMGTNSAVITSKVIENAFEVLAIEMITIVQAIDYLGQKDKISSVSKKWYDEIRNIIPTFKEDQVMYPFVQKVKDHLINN
Source text: (§1) Polynucleotide sequences encoding phenylalanine and tyrosine ammonia lyases from Stanieria cyanosphaera (SEQ ID NO: 2), Chroogloeocystis siderophila (SEQ ID NO: 4), Flavobacterium johnsoniae (SEQ ID NO: 6), and Rhodotorula glutinis (SEQ ID NO: 8) were synthesized as the genes of SEQ ID NOS: 1, 3, 5, and 7, respectively. These synthetic genes were cloned into a pCK110900 vector system (See e.g., U.S. Pat. No. 7,629,157 and US Pat. Appln. Publn. Nos. 2016/0244787, and 2006/0195947, all of which are incorporated by reference), and subsequently expressed in an E. coli strain derived from W3110. In some embodiments, expression vectors lacking antimicrobial resistance markers find use.
(§2) E. coli cultures transformed with plasmids containing TAL variants were plated onto LBagar plates with 1% glucose and in some instances, 30 μg/mL chloramphenicol, and grown overnight at 37° C. A single colony from each culture was transferred to 5 mL of Luria Broth (LB) with 1% glucose and 30 μg/mL chloramphenicol, where appropriate. The cultures were grown for 18 h at 30° C., 250 rpm, and subcultured approximately 1:50 into 250 ml of TB with 30 μg/mL of chloramphenicol. The cultures were grown for approximately 3-4 h at 30° C., 250 rpm, to an OD600 of 0.6-0.8, and induced with 1 mM of IPTG. The cultures were grown for 20 h at 30° C., 250 rpm. Cells were harvested by centrifugation (7000 rpm×10 min, 4° C.), and the supernatants were discarded. The pellets were resuspended in 30 mL of 20 mM sodium phosphate, pH 8.0, with 150 mM NaCl in some instances, and lysed using a single pass through a microfluidizer (Microfluidics), at 110 psi. The lysates were pelleted (10,000× rpm, 30 min, 4° C.), and the supernatants were heated for 1-2 hours at 60-65° C. in a water bath before being pelleted again (10,000× rpm, 1 h, 4° C.). The resulting supernatants were then frozen and lyophilized to generate powders containing the expressed enzymes.
(§3) SFP Characterization Assay for Activity on Tyrosine and Phenylalanine
(§4) To evaluate if the mutations in the TAL variants had altered kinetics, the Michaelis constant (Km) and maximum velocity (Vmax) were determined for each variant. To assay, 20 μl of diluted TAL variants at 1 g/L and 180 μL of 2-fold serially diluted tyrosine (0-2.48 mM tyrosine in 200 mM sodium phosphate, pH 7.0), were added to the wells of a 96-well UV-STAR® plate (Greiner Bio-One). The reactions were mixed briefly, and the activity was determined by tracking the absorbance at 290 nm over time (every 14-37s over 5 min) using a SPECTRAMAX® Plus 384 or a SPECTRAMAX® 190 (Molecular Devices) absorbance microplate reader. The Vmax and Km for each tested TAL variant was determined by fitting the data to a Michaelis-Menten equation using non-linear regression.

[2] = target: T2, Stanieria cyanosphaera tyrosine ammonia lyase (TAL), wild type, SEQ ID NO: 2 (Stanieria cyanosphaera, UniProt K9XQ92); assay: as above; format: biochemical; conditions: 0-2.48 mM tyrosine, 200 mM sodium phosphate, pH 7.0, A290
T2 sequence (K9XQ92 1-562): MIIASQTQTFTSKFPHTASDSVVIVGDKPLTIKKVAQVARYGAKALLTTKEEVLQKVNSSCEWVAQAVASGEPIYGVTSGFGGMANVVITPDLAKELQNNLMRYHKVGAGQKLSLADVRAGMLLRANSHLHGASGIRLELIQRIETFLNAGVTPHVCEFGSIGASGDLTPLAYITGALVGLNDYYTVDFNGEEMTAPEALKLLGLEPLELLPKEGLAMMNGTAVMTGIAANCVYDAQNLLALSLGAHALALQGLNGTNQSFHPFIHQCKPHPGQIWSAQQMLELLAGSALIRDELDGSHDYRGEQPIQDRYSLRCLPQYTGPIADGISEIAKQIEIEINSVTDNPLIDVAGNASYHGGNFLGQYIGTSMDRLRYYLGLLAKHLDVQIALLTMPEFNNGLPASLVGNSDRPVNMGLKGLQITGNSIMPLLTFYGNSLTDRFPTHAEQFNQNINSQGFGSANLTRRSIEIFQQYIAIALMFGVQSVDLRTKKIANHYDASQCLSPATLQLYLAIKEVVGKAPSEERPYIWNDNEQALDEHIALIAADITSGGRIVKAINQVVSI
Source text: as §1, §2, §3, §4

Compound: N[C@@H](Cc1ccc(O)cc1)C(=O)O [Tyr, L-tyrosine]
- Km ([1]; read-out: Tyr Km): < 50 µM
- Tyr Vmax ([1]; diluted TAL at 1 g/L): + (“+” = 0.5-1)
- Km ([2]; read-out: Tyr Km): 50 to 150 µM
- Tyr Vmax ([2]; diluted TAL at 1 g/L): +++ (“+++” > 5)
